Measurements taken from patent US20150094264A1, “USE OF OBESTATIN FOR MUSCLE REGENERATION” (UNIVERSIDADE DE SANTIAGO DE COMPOSTELA, priority 2012, published 2015).

Legend:
p38 = test: Activation of p38 [pp38(Y138)] by obestatin in L6E9 myoblasts, immunoblot; format: cell-based, rat
Procedure: FIG. 1. Activation of regulatory enzymes of mitogenesis and myogenesis by obestatin in L6E9 myoblasts and myotubes. Effect of obestatin on activity of regulatory enzymes of the mitogenic capacity (ERK 1/2), metabolic capacity (Akt and AMPK) and myogenic capacity (Akt and p38). Based on a dose-response study, the saturating dose for the maximum enzymatic activation is established for a concentration of 5 nM. […] Inactivation of AMPK is described in both cell models. The activation profile discovers bimodal characteristics for the action of obestatin: 1.—mitogenic activation in myoblasts; and, 2.—myogenic activation. The immunoblots are representative of 6 independent assays.
The studies were performed based on the use of L6E9 rat myoblasts which were maintained in growth medium (GM) formed by DMEM (Dulbecco's Modified Eagle Medium) supplemented with 10% fetal bovine serum (FBS), 100 U/mL penicillin, and 100 U/mL streptomycin. For the differentiation, the cells were cultured at 80-100% of confluence in GM and it was replaced for differentiation medium (DM) formed by DMEM supplemented with 2% FBS, 100 U/mL penicillin, and 100 U/mL streptomycin during 6 days.
The tissue or cell samples were directly lysed in RIPA buffer [Tris-HCl (pH 7.2), 50 mM; NaCl, 150 mM; EDTA, 1 mM; NP-40, 1% (v/v); Sodium deoxycholate, 0.25% (w/v); protease inhibitors (Sigma); phosphatise inhibitors (Sigma)]. The lysates were clarified by centrifugation (14,000×g during 15 min at 4° C.) and the protein concentration was quantified using QuantiPro™ BCA assay kit (Sigma). For immunoblot, equal amounts of protein were loaded which were fractionated in SOS-PAGE gels and transferred to nitrocellulose membranes. The immunoreactive bands were detected by chemiluminescence (Pierce ECL Western Blotting Substrate; Thermo Scientific, Ill., USA).
To define the mitogenic and myogenic effect of obestatin, the activation capacity was studied of intracellular targets regulating proliferation (ERK1/2) and/or differentiation (p38 and Akt). […]

[1] = tested on: damaged tibialis anterior of mouse; test: Histological (hematoxylin/eosin) analysis of muscle regeneration in damaged tibialis anterior of mouse; format: in vivo, Swiss mice; conditions: 300 nmol/kg weight local
Procedure: FIG. 9. Immunohistochemical analysis of the effect of the exogenous administration of obestatin on the capacity for muscle regeneration in the damaged tibialis anterior of mouse (animal model). The images shown are representative of the sections of the damaged tibialis anterior muscle (hematoxylin/eosin staining) under the local exogenous administration of obestatin (300 nmol/kg/24 h) or PBS (control) 48, 96, 168 and 240 h after inducing the damage. The images show the area of damage and regeneration at the indicated times.
FIG. 10. Quantitative analysis of the areas of the regenerative fibres of the tibialis anterior 96 and 168 hours after inducing the damage and exogenous administration of obestatin or PBS (control). The analysis corresponds to the area of regeneration myofibers in the tibialis anterior. For this purpose, an immunohistochemical analysis was performed by staining with hematoxylin/eosin and later quantification of the area of the myofiber by the use of the ImageJ64 program (n=10 per group; mean±standard error; *, p<0.005).
The muscle samples were mounted in a cold freezing medium [Tragacanth; Santa Cruz Biotechnology (CA, USA)] and frozen in a mixture of nitrogen-isopentane. The tissue sections were obtained by serial cuts with a cryostat (10 μm) and were mounted in adhesion slides for histochemistry (Marienfeld, Lauda-Konigshofen, Germany). The sections fixed were stained with hematoxylin/eosin. The quantification of the area of the regenerative myofibers was performed by using ImageJ64 analysis software.
The mice (30 g; n=50) were maintained in 12 h light-darkness cycled with free access to standard diet and water. To induce the muscle damage, the tibialis anterior muscle (TA) was extracted under anaesthesia and subjected to three cycles of damage due to cold contact applying along the length of the muscle a metal bar cooled in liquid nitrogen. The damaged muscles were treated locally with obestatin injection (300 nmol/kg weight) or the corresponding vehicle (PBS; control) during the times indicated in 24 h intervals. […]

For obestatin, the “obestatin concentration at which activation of p38 [pp38(Y138)] was observed” value (p38) was 0.1 nM, the “obestatin concentration at which pp38(Y138) phosphorylation levels reached saturable values” (p38; dose-response) was 5 nM and the “time post-stimulation of maximum pp38(Y138) levels” value (p38; obestatin 5 nM) was 10 min. For the same substance, the “regenerative process (restructuring of the myofibers in the area of damage) in relation to controls” value ([1]; 48, 96, 168 and 240 h) was “acceleration”, the “area of the regenerative fibres in the tibialis anterior in relation to controls” value ([1]; 96 and 168 h after the treatment) was “significant increase” and the “calibre of the regenerative myofibers in relation to controls” value ([1]; hematoxylin/eosin sections) was “significant increase”.
